In ChEMBL document CHEMBL1131992, “Bifunctional 2-naphthyl propargylic sulfones exhibiting high DNA intercalating and alkylating activity” (Bioorg Med Chem Lett, 1999):

What follows are compounds tested on P388 (assay: Cytotoxicity against P388 cell line(mouse T cell leukemia)).
Assay type: functional, cell-based

| SMILES | IC50 |
| --- | --- |
| O=S(=O)(CC#CCCCC#CCO)c1ccc2ccccc2c1 | 10 µM |
| O=C(OCC#CCCCC#CCS(=O)(=O)c1ccc2ccccc2c1)c1ccc2c(c1)C(=O)c1ccccc1C2=O | 41 µM |
| O=C(OCC#CCCCC#CCS(=O)(=O)c1ccc2ccccc2c1)c1cccc2cc3ccccc3cc12 | 42 µM |
| O=C(OCC#CCCCC#CCS(=O)(=O)c1ccc2ccccc2c1)c1ccc2cc3ccccc3cc2c1 | 17 µM |

Each compound was assayed on Nucleic Acid (assay: DNA cleavage activity as 70% FormI DNA cleavage).
Assay type: nucleic-acid assay

| SMILES | C70 |
| --- | --- |
| CCCC(O)C#CCS(=O)(=O)c1ccccc1 (stereo not drawn) | 800 µM |
| CCCC(O)C#CCS(=O)(=O)c1ccc2ccccc2c1 (stereo not drawn) | 5 µM |
| O=S(=O)(CC#CCCCC#CCO)c1ccc2ccccc2c1 | 10 µM |
| O=S(=O)(CC#CCCCC#CCO)c1ccccc1 | 1000 µM |
